Columns and labels:
Type in all cases: binding, human
MDC1 = assay: Biotinylated H2AX-pS139 peptide pull-down from HeLa nuclear extracts, Western blot for MDC1; details: biotinylated peptide on streptavidin beads, 4 h at 4°C
Procedure: (§1) Streptavidin-coupled Dynabeads MyOne Streptavidin T1 (Invitrogen) were washed four times with PBS pH 7.4. To conjugate the Dynabeads with biotinylated peptides (21st Century Biochemicals, Inc.), 30 μl of beads were incubated with 0.2 μmol of each peptide with end-over-end rotation for 90 min at RT. Conjugated Dynabeads were then washed once with PBS and 3 × 2 min with 0.1% BSA in PBS. HeLa nuclear extracts (Ipracell) were diluted 1:1 in 2X Dilution buffer (100 mM NaCl, 10 mM NaF, 0.2 mM EDTA, 0.4% Igepal CA-630, 20 mM HEPES-KOH pH 7.4) supplemented with complete protease inhibitor cocktail (Roche), and cleared by centrifugation at 16,000g for 15 min at 4°C. Purified GST-PELI2-FHA recombinant protein was also diluted in 2X Dilution buffer containing protease inhibitors. MDC1-[p]TQXF peptide-conjugated Dynabeads were incubated either with clarified HeLa nuclear extracts for 4 h or with purified GST-PELI2-FHA for 5 h. H2AX-[p]S139 peptide-conjugated Dynabeads were incubated with clarified HeLa nuclear extracts for 4 h. In all the cases, incubation was performed with end-over-end rotation at 4°C. Beads were washed three times with Peptide pull-down buffer (50 mM NaCl, 50 mM KCl, 5 mM NaF, 0.1 mM EDTA, 0.2% Igepal CA-630, 10% glycerol, 20 mM HEPES-KOH pH 7.4) supplemented with complete protease inhibitor cocktail (Roche). […]

PELI1/2 = assay: Biotinylated peptide pull-down from HeLa nuclear extracts, Western blot for PELI1/2; details: biotinylated peptide on streptavidin beads, 4 h at 4°C, SDS–PAGE and Western blot
Procedure: as §1, with “(Roche). Then, they were either resuspended in Peptide pull-down buffer and brought to the Functional Genomics Center of the University of Zurich (FGCZ) for further mass spectrometry, or elution was carried out in 2X SDS sample buffer (100 mM DTT, PLD001; Geneaid) for SDS–PAGE.” for “(Roche).”
(§2) Adjusted volume (intensity) of Western blot bands was calculated with Image Lab (Bio-Rad, Image Lab Software Version 6.1, Bio-Rad Laboratories, Inc.) for every biotinylated p-peptide from the MDC1-[p]TQXF peptide pull-down from HeLa nuclear extracts, as a way of analyzing the binding affinity of either RNF8 or PELI1/2 for each pTQXF cluster. […]

RNF8 = assay: Biotinylated peptide pull-down from HeLa nuclear extracts, Western blot for RNF8; details: biotinylated peptide on streptavidin beads, 4 h at 4°C, SDS–PAGE and Western blot
Procedure: as §1, with “h.” for “h. In all the cases, incubation was performed with end-over-end rotation at 4°C. Beads were washed three times with Peptide pull-down buffer (50 mM NaCl, 50 mM KCl, 5 mM NaF, 0.1 mM EDTA, 0.2% Igepal CA-630, 10% glycerol, 20 mM HEPES-KOH pH 7.4) supplemented with complete protease inhibitor cocktail (Roche).”
as §2

GST-PELI2-FHA = assay: Biotinylated peptide pull-down of purified recombinant GST-PELI2-FHA; details: biotinylated peptide on streptavidin beads, 5 h at 4°C, SDS–PAGE, protein stain
Procedure: For recombinant human PELI2-FHA expression in bacteria and further purification, the GST-tagged PELI2-FHA construct was transformed into E. coli BL21(DE3)pLysS Competent Cells (Promega). 100 μl of the transformation mixture were used to inoculate a 500 ml flask containing 100 ml of Luria–Bertani broth (LB) supplemented with carbenicillin (100 μg/ml) and chloramphenicol (34 μg/ml), and inoculated culture was incubated overnight at 27°C without shaking. On the next day, the overnight culture was grown at 37°C in an orbital shaking incubator until the optical density at 600 nm reached 0.6–0.8, moment when culture was removed from the incubator and rapidly cooled on ice to 25°C. Recombinant protein expression was induced by the addition of 0.4 mM isopropyl β-D-1-thiogalactopyranoside (IPTG) and incubation of the culture for a further 4 h at 25°C shaking at 220 rpm was performed. Cells were then harvested by centrifugation, and the resulting pellet was stored at −80°C until required. […] Protein concentration was measured after every purification step. […]

Substance | MDC1 pulled down by the peptide (in words) (MDC1) | PELI1/2 pulled down by the peptide (in words) (PELI1/2) | RNF8 pulled down by the peptide (in words) (RNF8) | purified GST-PELI2-FHA pulled down by the peptide (in words) (GST-PELI2-FHA)
Biotin-SGS-TVGPKAPSGGKKATQA[p]SQEY-OH [biotinylated H2AX-pS139, biotinylated γH2AX phosphopeptide for pull-downs] | efficiently pulled down |  |  | 
Biotin-SGS-CLRESEDSE[p]TQPFDT-NH2 [biotinylated pT765, synthetic biotinylated MDC1 TQXF phosphopeptide for pull-downs] |  | more PELI1/2 than RNF8 |  | 
Biotin-SGS-LDEPWEVLA[p]TQPFCL-NH2 [biotinylated pT752, synthetic biotinylated peptide, human MDC1 residues 743–757, phospho-threonine at T752] |  |  | large quantities | specifically pulled down
Biotin-SGS-DSEDLDLQA[p]TQCFLE-NH2 [biotinylated pT699, synthetic biotinylated MDC1 TQXF phosphopeptide for pull-downs] |  | highest quantities | highest quantities | 
Biotin-SGS-AVQSMEDEP[p]TQAFML-NH2 [biotinylated pT719, synthetic biotinylated MDC1 TQXF phosphopeptide for pull-downs] |  | specifically pulled down |  | specifically pulled down

Reference: publication PMC11884936, “MDC1 mediates Pellino recruitment to sites of DNA double-strand breaks” (Life Science Alliance, 2025)
